Measured values taken from patent US20240228536A1, “PEPTIDES FOR USE IN SKIN AND HAIR PIGMENTATION” (Follicum AB, priority 2020, published 2024).

Tests used:
skin equivalents (SEs) = test: H&E and Warthin Starry staining of skin equivalents; type: cell-based, human; settings: day 20
Excerpt: Two skin equivalents (SEs) were used from one donor.
The analysis was achieved using the Warthin Starry assay using our recently published method (Joly-Tonetti et al 2016) and hematoxylin&eosin (H&E) staining.
The SEs were stained with Warthin Starry stain to visualise and quantify the melanin in sections. The SEs were removed from culture on day 20 and washed in PBS. They were then flash frozen in liquid nitrogen and mounted in OCT for sectioning. 10 μm sections were cut using a cryostat, the sections collected on slides and fixed in Acetone for 10 mins. The OCT was removed from the section by washing in acidulated water for 20 mins. The slides were then incubated in 1% silver nitrate solution for 1 hour at 43° C. […] The slides were stained for 2 mins then the staining was stopped by running the slides under hot tap water. Slides were then mounted using Histomount. Brightfield images were captured using a Nikon Eclipse microscope. Image analysis of the melanin density in sections was performed using Image J and densitometric thresholding. Results are presented in pixel intensity units. For the hematoxylin&eosin (H&E) staining, the SEs were flash frozen, sectioned and fixed as above. The slides were then washed in dH2O to remove the OCT for 20 mins. Haematoxylin was filtered using filter paper into a Coplin jar. Further Coplin jars were also prepared containing the following: Tap Water, Scott's Tap Water, 0.25% Eosin, 50% Ethanol, 70% Ethanol, 90% Ethanol, Ethanol and Histoclear. The slides were then placed into Haematoxylin for 2 mins, and then placed into tap water for 30 secs, Scott's Tap Water for 1 min & Eosin for 2 mins. The slides were then dehydrated through the Ethanol (1 min each) then placed into Histoclear for 2 mins and mounted using Histomount. Brightfield images were captured using a Nikon Eclipse microscope.

[1] = system: Melanoderms Mel-300-A (donor); test: Skin equivalent culture, peptides in formulation, photographic assessment of pigmentation; type: cell-based, human; settings: 7 days; for pigmentation of SEs (visual assessment), response by concentration: 0.4%, 1% and 2% in formulation B, relative to vehicle controls; for pigmentation of SEs (visual assessment): in formulation B, 25 μl topical, vs formulation B only and peptide dissolved in water (10 mg/ml)
Experimental: Pigmented skin equivalents (SEs), Melanoderms Mel-300-A (donor) were obtained from Mattek Ltd together with the associated media […]-113 and hanging well plates. The skin equivalent surface area was 63.6 mm^2. Other equipment used included SMZ1000 Stereo 10 Microscope (Nikon); UC30 Microscope Camera (Olympus); Sterile Phosphate-Buffered Saline (PBS, Thermofisher, UK); 12-well Tissue Culture Plates (Sarstedt). All incubations were carried out in a humidified incubator maintained at 37° C. with 5% CO2. Pure peptide (>99%) was obtained from Biomatik, USA as acetate salt. The Melanoderms were prepared by carefully removing the agarose with sterile forceps and placing in 5 ml pre-warmed culture medium in hanging plates and incubated overnight. […] The tissue surface was photographed using an Olympus camera system attached to an inverted microscope to record initial pigmentation levels. SEs were transferred back to hanging well plates containing 5 ml fresh media. Three SEs were removed to provide baseline day 0 controls for analysis using WS staining and qPCR analysis. SEs (n=3 per treatment) were topically treated for 7 days with 25 μl of the various peptide concentrations in formulations as prepared in Example 12 in parallel with relevant controls. […] Each formulation was applied to the surface of SEs using a positive displacement pipette and spread evenly using a sterile microbiological loop. SEs were maintained at 37° C., 5% CO2 in a humidified incubator with media refreshed every other day until the end of treatment. On day 7 SEs were removed from culture and formulation carefully removed using a sterile microbiological loop and the surface rinsed in PBS then blotted dry with a sterile cotton bud. […] The pigmentation of the Melanoderms was macroscopically assessed by capturing high-resolution images using the Olympus microscope camera.

PMEL = test: qPCR expression analysis of melanogenesis markers in Melanoderm SEs; type: cell-based, human; settings: 0.4% in formulation B, day 7, against formulation B treatment only (p=0.015, t-test)
Experimental: (§1) RNA stabilized Melanoderm tissue from Example 13 was thawed on ice RNA extracted using the RNeasy extraction kit (Qiagen, UK) according to manufacturer's instructions.
(§2) To ensure efficient lysis, tissue was ground in lysis buffer in a RNase-free 1.5 ml centrifuge tube using a sterile microbiological colony picker then passed through a Qiashredder column (Qiagen, UK) before lysate was purified. To prevent carry over of gDNA to qPCR, on-column digestion using 80 μl of DNase enzyme was added (DNase on column digestion kit, Sigma, UK). RNA was eluted in a 50 μl volume of sterile elution buffer and stored at −80° C. until use. For cDNA reverse transcription 8 μl of RNA was added as template in a 20 μl final volume in a 96-well plate using the iScript Advanced cDNA Synthesis Kit for RT-qPCR (Bio-Rad, UK) according to manufacturer's instructions. Low profile 96-well PCR plates and seals for qPCR reactions were obtained from Thermofisher. For qPCR 1 μl of cDNA from each test sample and relevant controls were amplified in a 96-well plate using SsoAdvanced Universal SYBR® Green Supermix and target pigmentation specific gene primers (pigment cell-specific pre-melanosomal protein (PMEL), Tyrosinase-related protein-1 (TYRP-1) and Tyrosinase (TYR)) in a 20 μl final reaction volume. Prevalidated primers, templates and gDNA controls were sourced from Bio-Rad, UK. Prevalidated template cDNA was included as a positive control for each gene tested. Ribosomal protein-20 (RPS20) was used as a housekeeping gene control. Samples were amplified using an Applied Biosystems StepOne Plus qPCR machine and associated software. Differences in fold gene expression between treatments and untreated controls were calculated from RPS20 reference gene normalised Ct values using the ΔΔCt method (2-(ΔΔCt)). Final expression values were log 10 transformed prior to statistical analysis (unpaired t-test) using Prism software.

TYRP-1 = test: as above; type: cell-based, human; settings: 0.4% in formulation B, day 7, against formulation B only (p=0.005, t-test)
Experimental: as §1, §2

Tyrosinase (TYR) = test: as above; type: cell-based, human; settings: 0.4% in formulation B, day 7, compared to formulation B only (p=0.027, t-test)
Experimental: as §1, §2

[2] = Stability study of compositions comprising peptides 1 and 4 (HPLC purity); type: physicochemical; settings: water-free formulations A, B and C, 20° C., 12 weeks
Experimental: Samples of the separate formulations were stored at 20° C. […] Analysis of peptide purity in ointment and PBS solutions was performed using standard HPLC-UV-DA methods when the samples were freshly prepared (time 0) and after 1, 2, 6, 8 and 12 weeks.

Asn-Ala-Ala-Met (NAAM; (1)..(4) Peptide 4)
melanin content and distribution in SE sections (Warthin Starry) (skin equivalents (SEs); one of the donors (FIG. 3A)): increased the melanin content in the SEs across all layers | melanin content and distribution in SE sections (Warthin Starry) (skin equivalents (SEs); second donor (FIG. 3B-D)): visibly increased melanin content | pigmentation of SEs (visual assessment), response by concentration [1]: approximately equal increase in pigmentation relative to vehicle controls | pigmentation of SEs (visual assessment) [1]: more pigmented than the vehicle control | relative expression of PMEL (qPCR) (PMEL): greatest increase in expression which was significant | relative expression of TYRP-1 (qPCR) (TYRP-1): moderately significant increase in expression | relative expression of Tyrosinase (TYR) (qPCR) (Tyrosinase (TYR)): significant increase in expression

Asn-Ala-His-Met (NAHM; (1)..(4) Peptide 1)
melanin content and distribution in SE sections (Warthin Starry) (skin equivalents (SEs); second donor (FIG. 3B-D)): visibly increased melanin content | stability (peptide purity by HPLC) [2]: stable | pigmentation of SEs (visual assessment), response by concentration [1]: highest response at the higher 1% and 2% concentrations | pigmentation of SEs (visual assessment) [1]: more pigmented than the vehicle control
